Source: patent US20150105252A1, “SUBSTITUTED PYRAZOLES AS HERBICIDES” (E I DU PONT DE NEMOURS AND COMPANY, priority 2013, published 2015)

How the values were obtained:
[1] = tested on: foxtail, green; assay: Test D postemergence; format: in vivo, Setaria viridis; conditions: scale 0 to 100
Source text: (§1) Seeds of plant species selected from bluegrass (annual bluegrass, Poa annua), blackgrass (Alopecurus myosuroides), canarygrass (littleseed canarygrass, Phalaris minor), chickweed (common chickweed, Stellaria media), galium (catchweed bedstraw, Galium aparine), bromegrass, downy (downy bromegrass, Bromus tectorum), field poppy (Papaver rhoeas), field violet (Viola arvensis), foxtail, green (green foxtail, Setaria viridis), deadnettle (henbit deadnettle, Lamium amplexicaule), ryegrass, Italian (Italian ryegrass, Lolium multiflorum), kochia (Kochia scoparia), lambsquarters (Chenopodium album), oilseed rape (Brassica napus), pigweed (redroot pigweed, Amaranthus retroflexus), chamomile (scentless chamomile, Matricaria inodora), speedwell (bird's-eye speedwell, Veronica persica), barley, spring (spring barley, Hordeum vulgare), wheat, spring (spring wheat, Triticum aestivum), buckwheat, wild (wild buckwheat, Polygonum convolvulus), mustard, wild (wild mustard, Sinapis arvensis), oat, wild (wild oat, Avena fatua), radish, wild (wild radish, Raphanus raphanistrum), windgrass (Apera spica-venti), Russian thistle (Salsola kali), barley, winter (winter barley, Hordeum vulgare), and wheat, winter (winter wheat, Triticum aestivum) were planted into a silt loam soil and treated preemergence with test chemicals formulated in a non-phytotoxic solvent mixture which included a surfactant.
(§2) At the same time, these species were planted in pots containing Redi-Earth® planting medium (Scotts Company, 14111 Scottslawn Road, Marysville, Ohio 43041) comprising spaghnum peat moss, vermiculite, wetting agent and starter nutrients and treated with postemergence applications of the test chemicals formulated in the same manner. Plants ranged in height from 2 to 18 cm (1- to 4-leaf stage). Treated plants and controls were maintained in a controlled growth environment for 14 to 21 days after which time all species were compared to controls and visually evaluated. Plant response ratings, summarized in Table D, are based on a scale of 0 to 100 where 0 is no effect and 100 is complete control. A dash (-) response means no test result.

[2] = tested on: lambsquarters; assay: Test D postemergence; format: in vivo, Chenopodium album; conditions: scale 0 to 100
Source text: as §1, §2

[3] = tested on: galium; assay: Test D preemergence; format: in vivo, Galium aparine; conditions: scale 0 to 100
Source text: as §1, §2

[4] = tested on: corn; assay: Test F preemergence; format: in vivo, Zea mays
Source text: (§3) Seeds of plant species selected from corn (Zea mays), soybean (Glycine max), velvetleaf (Abutilon theophrasti), lambsquarters (Chenopodium album), wild poinsettia (Euphorbia heterophylla), pigweed, palmer (palmer pigweed, Amaranthus palmeri), common waterhemp (Amaranthus rudis), surinam grass (Brachiaria decumbens), large crabgrass (Digitaria sanguinalis), crabgrass, Brazil (Brazilian crabgrass, Digitaria horizontalis), fall panicum (Panicum dichotomiflorum), giant foxtail (Setaria faberii), green foxtail (Setaria viridis), goosegrass (Eleusine indica), johnsongrass (Sorghum halepense), common ragweed (Ambrosia elation), barnyardgrass (Echinochloa crus-galli), southern sandbur (Cenchrus echinatus), arrowleaf sida (Sida rhombifolia), Italian ryegrass (Lolium multiflorum), dayflower, VA (Virginia (VA) dayflower, Commelina virginica), field bindweed (Convolvulus arvensis), cocklebur (common cocklebur, Xanthium strumarium), morningglory (Ipomoea coccinea), nightshade (eastern black nightshade, Solanum ptycanthum), kochia (Kochia scoparia), yellow nutsedge (Cyperus esculentus), and hairy beggarticks (Bidens pilosa), were planted into a silt loam soil and treated preemergence with test chemicals formulated in a non-phytotoxic solvent mixture which included a surfactant.
(§4) At the same time, plants from these crop and weed species and also horseweed (Canada horseweed, Conyza canadensis), smartweed (ladysthumb smartweed, Polygonum persicaria), waterhemp_RES1, (ALS & Triazine resistant common waterhemp, Amaranthus rudis), and waterhemp_RES2, (ALS & HPPD resistant common waterhemp, Amaranthus rudis) were treated with postemergence applications of test chemicals formulated in the same manner. Plants ranged in height from 2 to 18 cm for postemergence treatments (1- to 4-leaf stage). Treated plants and controls were maintained in a greenhouse for 14 to 21 days, after which time all species were compared to controls and visually evaluated. Plant response ratings, summarized in Table F, are based on a scale of 0 to 100 where 0 is no effect and 100 is complete control. A dash (-) response means no test result.

[5] = tested on: Surinam grass; assay: Test F preemergence; format: in vivo, Brachiaria decumbens
Source text: as §3, §4

[6] = tested on: soybean; assay: Test F preemergence; format: in vivo, Glycine max
Source text: as §3, §4

[7] = tested on: crabgrass, naked; assay: Test E preemergence; format: in vivo, Digitaria nuda; conditions: 21 days, scale 0 to 100
Source text: Seeds of plant species selected from bermudagrass (Cynodon dactylon), Surinam grass (Brachiaria decumbens), crabgrass, large (large crabgrass, Digitaria sanguinalis), crabgrass, naked (naked crabgrass, Digitaria nuda), foxtail, green (green foxtail, Setaria viridis), johnsongrass (Sorghum halepense), kochia (Kochia scoparia), morningglory (pitted morningglory, Ipomoea lacunosa), nutsedge, purple (purple nutsedge, Cyperus rotundus), ragweed (common ragweed, Ambrosia elation), mustard, black (black mustard, Brassica nigra), guineagrass (Panicum maximum), dallisgrass (Paspalum dilatatum), barnyardgrass (Echinochloa crus-galli), sandbur (southern sandbur, Cenchrus echinatus), sowthistle (common sowthistle, Sonchus oleraceous), ryegrass, Italian (Italian ryegrass, Lolium multiflorum), signalgrass (broadleaf signalgrass, Brachiaria platyphylla), dayflower, VA (Virginia (VA) dayflower, Commelina virginica), bluegrass (annual bluegrass, Poa annua), quackgrass (Elytrigia repens), mallow (common mallow, Malva sylvestris), buckwheat, wild (wild buckwheat, Polygonum convolvulus), leafy spurge (Euphorbia esula), common chickweed (Stellaria media), wild poinsettia (Euphorbia heterophylla), pigweed, palmer (palmer pigweed, Amaranthus palmeri), and pigweed (redroot pigweed, Amaranthus retroflexus) were planted into a blend of loam soil and sand and treated preemergence with test chemicals formulated in a non-phytotoxic solvent mixture which included a surfactant.
Treated plants and controls were maintained in a greenhouse for 21 days, after which time all species were compared to controls and visually evaluated. Plant response ratings, summarized in Table E, are based on a scale of 0 to 100 where 0 is no effect and 100 is complete control. A dash (-) response means no test result.

[8] = Preemergence, 31 g ai/ha, scale 0 to 100
[9] = Preemergence, 62 g ai/ha, scale 0 to 100
[10] = Preemergence, 125 g ai/ha, scale 0 to 100
[11] = preemergence, 8 g ai/ha, scale 0 to 100, 100 is complete control
[12] = preemergence, 16 g ai/ha, scale 0 to 100, 100 is complete control
[13] = Preemergence, 16 g ai/ha, scale 0 to 100
[14] = Preemergence, 250 g ai/ha, scale 0 to 100

Row | Structure (SMILES) | Foxtail, Green plant response rating ([1]; Postemergence, 31 g ai/ha) | Foxtail, Green plant response rating ([1]; Postemergence, 125 g ai/ha) | Foxtail, Green plant response rating ([1]; Postemergence, 250 g ai/ha) | Foxtail, Green plant response rating ([1]; postemergence, 62 g ai/ha) | Lambsquarters plant response rating ([2]; Postemergence, 31 g ai/ha) | Lambsquarters plant response rating ([2]; Postemergence, 125 g ai/ha) | Lambsquarters plant response rating ([2]; Postemergence, 250 g ai/ha) | Lambsquarters plant response rating ([2]; postemergence, 62 g ai/ha) | Plant response rating, Galium ([3]; 62 g ai/ha) | Plant response rating, Galium ([3]; 125 g ai/ha) | Plant response rating, Galium ([3]; 250 g ai/ha) | Plant response rating, Corn [4, 9] | Plant response rating, Corn [4, 10] | Plant response rating, Corn [4, 11] | Plant response rating, Surinam Grass [5, 9] | Plant response rating, Surinam Grass [5, 10] | Plant response rating, Surinam Grass [5, 11] | Plant response rating, Soybean [6, 9] | Plant response rating, Soybean [6, 10] | Plant response rating, Soybean [6, 11] | other results
1 | CCCc1cc(C(=O)NCC(F)(F)F)nn1Cc1cc(C(F)(F)F)nn1C [Compound 138] | 15 | 65 | 80 | 15 | 80 | 80 | 80 | 80 | 100 | 100 | 100 |  |  |  |  |  |  |  |  |  | 
2 | CCNC(=O)c1cc(CCCl)n(Cc2ccnc(C(F)(F)F)c2)n1 [Compound 179] |  |  |  |  |  |  |  |  |  |  |  | 30 | 30 | 0 | 20 | 60 | 0 | 65 | 70 | 0 | Plant response rating, Corn [4, 8]: 20; Plant response rating, Surinam Grass [5, 8]: 20; Plant response rating, Soybean [6, 8]: 35
3 | CCOc1cc(C(=O)NC(C)C)nn1Cc1ccnc(C(F)(F)F)c1 [Compound 188] | 25 | 25 | 55 | 25 | 70 | 80 | 90 | 70 | 95 | 100 | 100 | 15 | 65 | 20 | 100 | 100 | 20 | 30 | 85 | 0 | 
4 | CCOc1cc(C(=O)NC2CC2)nn1Cc1ccnc(C(F)(F)F)c1 [Compound 189] | 20 | 15 | 50 | 20 | 75 | 80 | 90 | 75 | 75 | 70 | 100 |  |  |  |  |  |  |  |  |  | Plant response rating, Crabgrass, Naked ([7]; 4 g ai/ha): 40; Plant response rating, Crabgrass, Naked ([7]; 8 g ai/ha): 95; Plant response rating, Crabgrass, Naked ([7]; 16 g ai/ha): 100; Plant response rating, Crabgrass, Naked ([7]; 31 g ai/ha): 100; Plant response rating, Crabgrass, Naked ([7]; 62 g ai/ha): 100
5 | CCNC(=O)c1cc(CC)n(Cc2ccnc(C(F)(F)F)c2)n1 [Compound 196] |  |  |  |  |  |  |  |  |  |  |  | 0 | 25 | 0 | 25 | 70 | 0 | 50 | 50 | 0 | Plant response rating, Corn [4, 12]: 0; Plant response rating, Surinam Grass [5, 12]: 0; Plant response rating, Soybean [6, 13]: 20; Plant response rating, Soybean [6, 12]: 0
6 | Cc1cc(C(=O)NC(C)C)nn1Cc1ccnc(C(F)(F)F)c1 [Compound 197] |  |  |  |  |  |  |  |  |  |  |  | 0 | 20 | 0 | 20 | 20 | 0 | 20 | 65 | 0 | Plant response rating, Corn [4, 12]: 0; Plant response rating, Surinam Grass [5, 12]: 0; Plant response rating, Soybean [6, 13]: 10; Plant response rating, Soybean [6, 12]: 5
7 | CCc1cc(C(=O)NC2CC2)nn1Cc1ccnc(OCC(F)(F)F)c1 [Compound 200] |  |  |  |  |  |  |  |  |  |  |  | 0 | 0 |  | 5 | 65 |  | 0 | 65 |  | Plant response rating, Corn [4, 14]: 35; Plant response rating, Corn [4, 12]: 0; Plant response rating, Surinam Grass [5, 14]: 95; Plant response rating, Surinam Grass [5, 12]: 0; Plant response rating, Soybean [6, 14]: 75; Plant response rating, Soybean [6, 13]: 0; Plant response rating, Soybean [6, 12]: 0
